The record followed here is patent US20260022142A1, “MACROCYCLIC IMMUNOMODULATORS” (Bristol-Myers Squibb Company, priority 2022, published 2026).

For the test, the target named is T1, PD-1/PD-L1 interaction (PE-labeled human PD-L1-Ig binding to Jurkat cell line over-expressing human PD-1) (Homo sapiens, UniProt Q15116).
T1 construct: expressed in transfected cells; host or cells: Jurkat
As to the kind of experiment: Jurkat-PD-1 Cell Binding High-Content Screening Assay (CBA). The class given is cell-based. Particulars: Jurkat cell line over-expressing human PD-1; PE-labeled PD-L1-Ig 20 nM final; read-out: Jurkat hPD1-PDL1 IC50. Summed up: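 First, compound is added to PD-1-expressing Jurkat cells in serum-containing DMEM and left 2 h at 37° C. Next, PE-conjugated PD-L1-Ig is introduced at 20 nM final concentration for 1 hour. Finally, cells are fixed in 4% paraformaldehyde with Hoechst 33342, washed and imaged.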

The structures appear in SMILES notation. Bridge positions count the residues as written; N and C are the ends. Square brackets hold non-standard residues; d marks the D form. Peptide text beside a SMILES is read from it. * marks the point of attachment. Phe(3-CF3) = N[C@@H](Cc1cccc(C(F)(F)F)c1)C(=O)O; Phe(4-COOH) = N[C@@H](Cc1ccc(C(=O)O)cc1)C(=O)O; Bip = N[C@@H](Cc1ccc(-c2ccccc2)cc1)C(=O)O; NH(CH2)14COOH = O=C(O)CCCCCCCCCCCCCCN*; Phe(3-Me) = Cc1cccc(C[C@H](N)C(=O)O)c1; PEG6 = NCCOCCOCCOCCOCCOCCOCCC(=O)O; Cha = N[C@@H](CC1CCCCC1)C(=O)O; aThr = C[C@H](O)[C@H](N)C(=O)O; Carboxymethyl = O=C(O)C*; Orn = NCCC[C@H](N)C(=O)O; Dab = NCC[C@H](N)C(=O)O

As usually defined, the IC50 is the point on the concentration scale where inhibition reaches its midpoint.

T1 sequence (Q15116 25-288): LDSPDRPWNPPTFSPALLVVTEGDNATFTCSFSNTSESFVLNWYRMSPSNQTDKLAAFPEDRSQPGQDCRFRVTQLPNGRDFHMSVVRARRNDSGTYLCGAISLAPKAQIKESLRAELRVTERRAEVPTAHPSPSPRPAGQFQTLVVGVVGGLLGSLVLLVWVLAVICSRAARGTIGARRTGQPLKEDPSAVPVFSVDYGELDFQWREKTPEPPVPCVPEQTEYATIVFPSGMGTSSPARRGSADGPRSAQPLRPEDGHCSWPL

For `Cc1cccc(C[C@@H]2NC(=O)[C@H](CC(=O)O)NC(=O)[C@H](Cc3ccc(OCC(=O)O)cc3)NC(=O)[C@H]([C@H](C)O)NC(=O)CSC[C@@H](C(=O)N[C@@H](CCN)C(=O)NCCOCCOCCOCCOCCOCCOCCC(=O)NCCCCCCCCCCCCCCC(=O)O)NC(=O)[C@H](CCC(=O)O)NC(=O)[C@H](C(C)C)NC(=O)[C@H](CC3CCCCC3)NC(=O)[C@H](CCN)NC(=O)[C@@H](CC(C)C)NC(=O)[C@H](CCCN)NC(=O)[C@H](Cc3ccc(OCC(=O)O)cc3)NC(=O)[C@H](Cc3ccc(-c4ccccc4)cc3)NC(=O)[C@H](Cc3ccc(C(=O)O)cc3)NC2=O)c1` [Compound 3911] ({CH2CO}-[aThr]Y(Carboxymethyl)D[Phe(3-Me)][Phe(4-COOH)][Bip]Y(Carboxymethyl)[Orn][dL][Dab][Cha]VEC[Dab][PEG6]-{NH(CH2)14COOH}; thioether N-14), the IC50 came out at 90.5 nM.

For the molecule `CC(C)C[C@H]1NC(=O)[C@H](CCCN)NC(=O)[C@H](Cc2ccc(OCC(=O)O)cc2)NC(=O)[C@H](Cc2ccc(-c3ccccc3)cc2)NC(=O)[C@H](Cc2ccc(C(=O)O)cc2)NC(=O)[C@H](Cc2cccc(C(F)(F)F)c2)NC(=O)[C@H](CC(=O)O)NC(=O)[C@H](Cc2ccc(OCC(=O)O)cc2)NC(=O)[C@H]([C@H](C)O)NC(=O)CSC[C@@H](C(=O)N[C@@H](CCN)C(=O)NCCOCCOCCOCCOCCOCCOCCC(=O)NCCCCCCCCCCCCCCC(=O)O)NC(=O)[C@H](CCC(=O)O)NC(=O)[C@H](C(C)C)NC(=O)[C@H](CC2CCCCC2)NC(=O)[C@H](CCN)NC1=O` [Compound 3912] ({CH2CO}-[aThr]Y(Carboxymethyl)D[Phe(3-CF3)][Phe(4-COOH)][Bip]Y(Carboxymethyl)[Orn][dL][Dab][Cha]VEC[Dab][PEG6]-{NH(CH2)14COOH}; thioether N-14), the IC50 was 252 nM.
